# Data taken from patent EP0260606A2, “Medicament for curing neurotic disturbance or disorder comprising sialocylglycerolipid” (MECT CORPORATION, priority 1986, dated 1988).
# Tested on: rats having their sciatic nerves crushed
# Experiment: Curing effect on rats with crushed sciatic nerve (distance between toes, weight of musculi soleus)
# Type: in vivo, rat
# Conditions: 0.5 mg/kg, ip, average ± S.D.
# Description: The curing effect of the compound (I) of the invention on the rats having their sciatic nerves crushed, which were used as models caused by peripheral nervous disturbances, was assessed by examining (l) the change in action of the crushed hind leg and (2) the change in weight of the muscle as indicators for the modification of peripheral nerve and for the recovery course of the disturbance.
# In the experiment, seven male Wister family rats (6 weeks age) were used per a group. The sciatic nerve of each rat was crushed in accordance with the method of Yamazu et al. (see Kiyomi Yamazu, Takenori Kaneko, Akifumi Kitahara and Isao Ohkawa, Journal of Japanese Pharmacological Society, 72, 259 - -268 (l976)) and in accordance with the method of Hasegawa et al. (see Kazuo Hasegawa, Naoji Mikuni and Yutaka Sakai, Journal of Japanese Pharmacological Society, 74, 72l - 734 (l978)). Specifically, under anesthesia with Pentobarbital (40 mg/kg, i.p.), the left sciatic nerve was exposed at the femur and the site 5 mm centrally from the branch portion between the N. tibialis and the N. suralis was crushed using a modified artery klemme having a width of 2 mm and gap of 0.l mm. Rats subjected to the operation were randomly dispensed to form the groups subjected to test.
# The compound (I) of the invention was intraperitoneally administered one time per day from the day on which the nerve was crushed to the 22nd day. The control groups included a group administered with Mecobalamin (produced by Gedeon Richter Ltd.), a group administered with a 20% aqueous solution of propylene glycol (hereinafter referred to as 20% PG) which was used to dissolve the compound (I) of the invention, and a group administered with a 0.9% aqueous saline solution. The predetermined measurements were conducted with the lapse of time after the crushing operation (at the first, fourth, seventh, tenth, l4th, l5th, l7th, l9th 2lst and 28th days).
# The distance between the toes was measured, since this is a good indicator showing the modification and recovery of the function of the nerve and the change thereof could conveniently measured with the lapse of time.
# The measurement was conducted in accordance with the method of Hasegawa, (Hasegawa, K., Experientia, 34, 750 - 75l (l978)) by measuring the distance from the first toe to the fifth toe of the hind leg.
# The ratio of the distance at the crushed side to the distance at the normal side was calculated as a percentage (%), the average values and the standard deviations (S.D.) being shown in Table 5.
# It is known that removal of or disturbance in a certain nerve causes atrophy of the muscle controlled by the nerve, and the atrophy is gradually recovered by the recontrol by the nerve. For this reason, the quantitative change in weight of the muscle was selected as an indicator. At 28th day after the operation, the muscli soleus of both hind legs were extracted under anesthesia with Pentobarbital, and the weights of the muscles were weighed. The weight ratio of the muscli soleus at the crushed side to the muscli soleus at the normal side was calculated and represented by percentage (%).
compound,measurement,setting,value
C/C1=C2/[N-][C@H]([C@H](CC(N)=O)[C@@]2(C)CCC(=O)NC[C@@H](C)OP(=O)([O-])O[C@H]2[C@@H](O)[C@@H](n3cnc4cc(C)c(C)cc43)O[C@@H]2CO)[C@]2(C)N=C(/C(C)=C3N=C(/C=C4N=C1[C@@H](CCC(N)=O)C\4(C)C)[C@@H](CCC(N)=O)[C@]\3(C)CC(N)=O)[C@@H](CCC(N)=O)[C@]2(C)CC(N)=O.[CH3-].[Co+3] [Mecobalamine],Recovery Rate (%) in Distance between the Fingers,17th Day,77.0 ± 10.7%
same,Recovery Rate (%) in Distance between the Fingers,19th Day,88.8 ± 5.1 %
same,Recovery Rate (%) in Weight of the Muscle,28th Day,82.7 ± 5.1%
